# Experimental data from patent US20130023645A1 (priority 2006, published 2013).
# Several values for one entry are separate records, joined by “and”; a condition that tells them apart may be missing. Identical values can stand only once. Positions of bridges follow the written chain, without caps; N, C: chain ends. Non-standard residues stand in square brackets, D forms with d. Residues, ends and D or L forms follow the SMILES beside them. ξ: configuration not given here. Ala(indol-2-yl) = N[C@@H](Cc1cc2ccccc2[nH]1)C(=O)O; AllylGly = C=CC[C@H](N)C(=O)O; ξP = O=C(O)C1CCCN1
# Molecular target: T1, neuronal-type nicotinic receptors (Bos taurus, UniProt Q07263+Q8SPU6)
# T1 construct: monolayer cultures of bovine adrenal chromaffin cells; endogenous in cells; host or cells: bovine adrenal chromaffin cells (primary monolayer cultures)
# T1 sequence (Q07263 22-495): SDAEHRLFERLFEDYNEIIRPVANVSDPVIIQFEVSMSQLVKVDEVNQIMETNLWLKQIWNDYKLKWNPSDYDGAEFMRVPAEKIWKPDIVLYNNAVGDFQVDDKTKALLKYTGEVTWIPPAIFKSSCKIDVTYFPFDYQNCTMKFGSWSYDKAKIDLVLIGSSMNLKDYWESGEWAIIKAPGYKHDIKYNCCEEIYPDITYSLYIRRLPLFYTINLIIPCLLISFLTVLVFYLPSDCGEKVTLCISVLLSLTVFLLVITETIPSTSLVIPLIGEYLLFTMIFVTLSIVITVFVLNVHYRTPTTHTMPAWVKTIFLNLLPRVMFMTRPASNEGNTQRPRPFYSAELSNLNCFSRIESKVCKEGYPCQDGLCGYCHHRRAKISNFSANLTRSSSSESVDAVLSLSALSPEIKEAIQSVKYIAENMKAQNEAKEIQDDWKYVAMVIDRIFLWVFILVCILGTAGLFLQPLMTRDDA
# T1 sequence (Q8SPU6 20-496): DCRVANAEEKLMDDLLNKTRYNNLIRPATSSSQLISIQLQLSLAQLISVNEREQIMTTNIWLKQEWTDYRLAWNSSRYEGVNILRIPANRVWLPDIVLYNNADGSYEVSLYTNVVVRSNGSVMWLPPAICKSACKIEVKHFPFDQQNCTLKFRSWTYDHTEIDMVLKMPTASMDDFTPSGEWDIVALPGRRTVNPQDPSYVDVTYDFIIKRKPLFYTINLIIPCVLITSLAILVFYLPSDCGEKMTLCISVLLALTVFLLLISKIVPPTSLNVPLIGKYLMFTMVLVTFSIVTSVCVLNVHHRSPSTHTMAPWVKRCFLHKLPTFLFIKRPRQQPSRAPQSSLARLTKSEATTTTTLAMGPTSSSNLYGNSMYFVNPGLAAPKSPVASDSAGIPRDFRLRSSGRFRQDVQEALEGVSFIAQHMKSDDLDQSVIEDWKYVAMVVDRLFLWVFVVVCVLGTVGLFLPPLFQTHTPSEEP
# Type: cell-based, bovine
smiles,measurement,value
"C[C@@H]1NC(=O)[C@@H]2CSSC[C@H](NC(=O)CN)C(=O)N[C@@H](CC=CC[C@@H](C(N)=O)NC(=O)[C@H](CCCNC(=N)N)NC(=O)[C@H](Cc3cc4ccccc4[nH]3)NC1=O)C(=O)N[C@@H](CO)C(=O)N[C@@H](CC(=O)O)C(=O)N1CCCC1C(=O)N[C@@H](CCCNC(=N)N)C(=O)N2 (stereo partly drawn) [compound 119, [2,8]-Cystino-[3,12]-Dicarba Conotoxin ImI: NH2-Gly-Cys-c[Hag-Ser-Asp-Pro-Arg-Cys-Ala-Trp-Arg-Hag]-NH2] (H-GC[AllylGly]SD[ξP]RCA[Ala(indol-2-yl)]R[AllylGly]-NH2; disulfide 2-8; staple 3-12)","Adrenaline Release, % control",83.420% and 58.888%
same,"Adrenaline Release, mean",3.77% and 2.76%
same,"Adrenaline Release, single determinations (1st-4th)",3.31% and 3.67% and 4.14% and 3.98% and 2.32% and 2.95% and 2.76% and 3.02%
same,"Noradrenaline Release, % control",55.971% and 78.400%
same,"Noradrenaline Release, % inhibition",21.600%
same,"Noradrenaline Release, mean",4.15% and 5.52%
same,"Noradrenaline Release, single determinations (1st-4th)",3.22% and 4.58% and 3.99% and 4.81% and 4.89% and 5.75% and 5.73%
same,"noradrenaline released, basal release (0.72%) subtracted",3.43%
